Source: PMC3256188, “Novel Nonphosphorylated Peptides with Conserved Sequences Selectively Bind to Grb7 SH2 Domain with Affinity Comparable to Its Phosphorylated Ligand” (PLoS ONE, 2012)
Non-standard residues stand in square brackets, D forms with d. No end group written: not given here. pY = N[C@@H](Cc1ccc(OP(=O)(O)O)cc1)C(=O)O

Columns and labels:
[1] = test system: EYFP-tagged Grb7 SH2 domain; test: Bioluminescence Resonance Energy Transfer (BRET) in HEK293T cells; assay type: cell-based; settings: 36 h after transfection, EYFP-Grb7 SH2 + mRLUC-tagged peptide, coelenterazine 5.9 µM, eighteen group ratios
Description: For the BRET assay, the EYFP fragment was generated by PCR amplification. The ErbB3-mRLUC plasmid was constructed by the Beijing Sino Biological Inc. The SH2 domain of Grb7 was fused to the EYFP fragment, and the nonphosphorylated peptides 10 and 41 were fused to the mRLUC fragment. The Grb7 SH2 domain sequence was inserted at the C-terminus of the EYFP tag.
HEK293T cells at 70%–80% confluency were given fresh DMEM (high glucose) culture medium and transfected with plasmids using the calcium phosphate method. Samples were collected at 36 h after transfection.
In BRET, the Renilla luciferase (mRLUC) is fused to the candidate protein, and the green fluorescent protein mutant (EYFP) is fused to the target protein. Interactions between the two fused proteins bring the luciferase and the green fluorescent protein into close proximity, which promotes resonance energy transfer from mRLUC to EYFP [38]. Then EYFP is […] at 530 nm, and the emission is used to determine the binding between the two interacting proteins. In this study, HEK293T cells were collected at 36 h after transfection, 100 µL of mixed cell suspension was added to the u-bottom 96-well microtiter plates (Corning, USA) before measurement. The measurement of bioluminescence, with rasters of 460/40 nm and 518/20 nm, was performed on Synergy4 Multi-Mode Microplates Readers (BioTek, USA). The BRET reaction was initiated by 5.9 µM coelenterazine (Promega, USA). Data were analyzed by one-factor analysis of variance using SPSS 17.0.

Grb7 SH2 domain = test: Yeast two-hybrid, Grb7 SH2 domain; assay type: cell-based; settings: yeast strain CG1945, GAL4 BD-SH2 bait, SD/-Trp-His-Leu selection and three independent improved LacZ tests
Description: To see whether the conserved residues were required for association with the Grb7 SH2 domain, the peptide 10 was used as the mutation template to design three mutated peptides: the N-GIPT deletion mutation (10AM), the C-GIP deletion mutation (10BM) and the both N-GIPT and C-GIP deletion mutation (10CM).
The ABL_1 and Grb2 plasmids were gifts from Professor Ruibao Ren (Brandeis University, USA), and the Grb7 (BC006535) and Grb14 cDNA (BC053559) plasmids were from the Proteintech Group. The inserted sequences of the SH2 domains were as follows: Grb7: N-[…]-C; Grb2: N-[…]-C; ABL_1: N-[…]-C; and Grb14: N-[…]-C.
In the mutation assay, the control and mutation sequences were as follows:
The GAL4 BD-SH2 fusion bait plasmids were transformed into the yeast strain CG1945 using the lithium acetate protocol. The transformants were grown on SD/-Trp plates and spread on SD/-Trp-His plates for self-activation estimation. Those transformants without background growth or growth inhibited by 3-amino-1, 2, 4-triazole were selected for the subsequent screening. Approximately 3.01×10^6 clones of the random peptide library (Protocol No. PT303921, Clontech, USA), as AD baits, were effectively transformed into yeast strain CG 1945 containing BD bait plasmids and used to be screened according to the MATCHMAKER Two-Hybrid System protocol (Cat. No. 630489, Clontech, USA). Plasmids of potential positive transformants selected on plates with SD/-Trp-His-Leu medium in the primary screening were isolated and retransformed into the CG1945 cells containing the corresponding SH2 bait plasmids. The improved LacZ assay was then performed. Clones that were positive for all of the reporter assays and confirmed by three independent improved LacZ tests were selected for specific interactions.

[2] = target: T1, GFP-Grb7 SH2 domain and 41-mRLUC-3×Flag complex (Homo sapiens, UniProt Q14451); test: Competition immunoprecipitation, GFP-Grb7 SH2 domain and 41-mRLUC-3×Flag complex; assay type: binding
T1 construct: expressed in transfected cells; host or cells: HEK293T
Description: To see whether the nonphosphorylated peptide could effectively compete with phosphorylated ligand for binding to the Grb7 SH2 domain, the phosphorylated ligand pY (1180) (DEEYEpY(1180)MNRRR), which was previously shown to interact with the Grb7 SH2 domain [6], and the nonphosphorylated 41-A ligand ([…]), which contains the first twenty-two amino acid-motif close to the N-terminus of peptide 41, were examine for their abilities to interfere with the GFP-Grb7 SH2 domain and 41-mRLUC-3×Flag complex using immunoprecipitation with anti-GFP antibody.
The phosphorylated ligand pY (1180) (DEEYEpY(1180)MNRRR) from the ErbB3 and the nonphosphorylated peptide 41-A ([…] RV) from nonphosphorylated peptide 41 were synthesized by the China Peptides Co., Ltd. The HPLC purification analysis and MS quality analysis reports were obtained.
HEK293T cells were washed 5 times with ice-cold PBS buffer and scraped off the plates into cell lysis buffer (1% Nonidet P-40, 0.02 M TRIS (pH 7.5), 0.15 M sodium chloride, 0.001 M EDTA, 0.5% sodium deoxycholate, 0.1% SDS and 0.001 M PMSF). Lysates were incubated on ice for 5 minutes, vortexed 2 times for 30 seconds each and centrifuged at 12,000 rpm for 15 minutes at 4°C. After centrifuging twice, the supernatant was incubated with anti-Flag antibody (1∶100, M20008M, Abmart, China) for 6–8 h at 4°C. Protein G agarose (40 µL) was added into 1 mL of the above mixture and coupled to the anti-Flag antibody for 3 h at 4°C. The immunoprecipitates were washed 2–3 times with PBS buffer (PH 7.4), and the sediments were diluted with 5×SDS electrophoresis buffer and heated at 97°C for 10 minutes. The proteins were separated by SDS-PAGE and transferred to PVDF membranes (IPVH00010, Millipore, USA). The membranes were incubated with anti-GFP antibody (1∶2000, P30010, Abmart, China) and goat anti-rabbit secondary antibody (1∶4000, M21002, Abmart, China) to identify target proteins. For the competition analyses, the immunoprecipitation complexes were mixed with anti-Flag antibody and different concentrations of the synthesized phosphorylated ligands or the nonphosphorylated ligands. The proteins were separated by SDS-PAGE, and the SH2 domain of Grb7 protein was analyzed using anti-GFP antibody. Western blot analysis was carried out using the Image J [37], the IC50 values were calculated by regression analyses using SPSS 17.0.

EGFP-Grb7 SH2 = target: T2, EGFP-Grb7 SH2 (human); test: co-IP; competition: synthetic peptide (0.0072, 0.036, 0.18 mM) added to the immunoprecipitation complexes of Grb7 SH2 domain and 41-mRLUC-3×Flag; Grb7 SH2 blotted with anti-GFP, bands scanned (ImageJ), IC50 by regression; settings: one partner purified
T2 construct: SH2 domain of Grb7, inserted at the C terminus of the EGFP tag; also called GFP-Grb7 SH2 domain; Grb7 SH2 domain; source: HEK293T, transfected (calcium phosphate), in lysate; not shown: EGFP, N-terminal, kept
T2 chain: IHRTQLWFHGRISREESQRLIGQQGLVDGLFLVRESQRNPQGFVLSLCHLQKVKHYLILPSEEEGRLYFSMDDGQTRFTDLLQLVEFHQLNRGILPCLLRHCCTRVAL

[3] = test system: SK-BR-3 breast cancer cells; test: MTS cell proliferation assay; assay type: cell-based; settings: beginning from 24 h (measured 18, 24, 36, 48, 60 h after transfection), absorbance 492 nm, vs mRLUC-3×Flag control, p<0.01
Procedure: For the cell proliferation assay, the anti-Grb7 antibody (N-20, Santa Cruz Biotechnology, USA) and the anti-Flag antibody (M20008M, Abmart, China) were used for the western blot, and MTS (Promega, USA) was used for the analysis of cell proliferation.
The MTS cell proliferation assay was performed to analyze the proliferation of SK-BR-3 breast cancer cells (Cell culture center of PUMC, China) according to the manufacturer's instructions (Promega, USA). SK-BR-3 cells at 70%–80% confluency were transiently transfected respectively with plasmids of 41-mRLUC-3×Flag or mRLUC-3×Flag and Mega Tran 1.0 (OriGene, USA). Beginning from 12 h after transfection, 400 µg/mL G418 (11811-023, Invitrogen, USA) was used to select for the transfected cells. The u-bottom 96-well microtiter plates (Corning, USA) were seeded with approximately 7.50×10^3 cells per well at 18 h after transfection. […] The absorbance at 492 nm of transfected cells and control DMEM medium was measured separately at 18 h, 24 h, 36 h, 48 h and 60 h after transfection on Synergy4 Multi-Mode Microplates Readers (BioTek, USA). The absorbance was adjusted by differences in the absorbance between cell culture medium and control medium without seeded cells. The data were analyzed by double-factor variance analysis using SPSS 17.0.

Molecule: ErbB3: mRLUC-tagged ErbB3, expressed from ErbB3-mRLUC plasmid
- BRET luminescence ratio of 530/480 nm [1]: strongest luminescence

Molecule: N-AGVESL YTPTTPTLLLTRPLPGIPRGLRGW-C [10AM, N-GIPT deletion mutation of peptide 10]
- recognition by / interaction with the Grb7 SH2 domain (Grb7 SH2 domain): None of the three mutations were recognized by the Grb7 SH2 domain

Molecule: N-AGVESLGIPNYTPTTPTLLLTRPLP RGLRGW-C (AGVESLGIPNYTPTTPTLLLTRPLPRGLRGW; left off: Gal4 activation domain (inferred: two-hybrid prey), end not stated, kept) [10BM, C-GIP deletion mutation of peptide 10]
- recognition by / interaction with the Grb7 SH2 domain (Grb7 SH2 domain): None of the three mutations were recognized by the Grb7 SH2 domain

Molecule: N-AGVESLYTPTTPTLLLTRPLPRGLRGW-C [peptide 10CM, both N-GIPT and C-GIP deletion mutation of peptide 10]
- BRET luminescence ratio of 530/480 nm [1]: non-interacting
- recognition by / interaction with the Grb7 SH2 domain (Grb7 SH2 domain): None of the three mutations were recognized by the Grb7 SH2 domain

Molecule: N-GMWEGLEGGGVAGVESLGIPNYTPTTPTLLLTRPLPGIPRGLRGWSLLRCCRLLCRNSYITAAPKHHHPLQTSPRGSPGLQEFDIKLIDTVDLEGGPGTQFAL-C [peptide 10, nonphosphorylated peptide identified from random peptide library; mutation template]
- BRET luminescence ratio of 530/480 nm [1]: significantly stronger
- BRET luminescence ratio of 530/480 nm ([1]; listed as Peptide 10): slightly stronger BRET signals compared to peptide 41

Molecule: VAVGIPTQPTTSSEPSPPSNPPWDPGRV [peptide 41-A, synthesized nonphosphorylated ligand containing the first twenty-two amino acid-motif of peptide 41]
- interference with binding of the Grb7 SH2 domain to peptide 41 ([2]; 0.0072 mM): did not significantly interfere
- interference with binding of the Grb7 SH2 domain to peptide 41 ([2]; 0.036 mM): did not significantly interfere
- interference with binding of the Grb7 SH2 domain to peptide 41 ([2]; 0.18 mM): nearly abolished
- disruptive effect on the Grb7 SH2 domain/peptide 41 interaction ([2]; Figure 3A, overall, concentration not given): even stronger than that of the pY (1180) ligand
- binding affinity to the Grb7 SH2 domain, comparison of 41-A and pY (1180) ([2]; in vitro competition, in words): at least comparable binding affinities to the Grb7 SH2 domain

B1: nonphosphorylated 41-A ligand (peptide)
peptide: VAVGIPTQPTTSSEPSPPSNPPWDPGRV
notes: stretch of peptide 41 with its first 22-residue motif; also called peptide 41-A; source: synthetic peptide (China Peptides Co., Ltd.)
- IC50 (EGFP-Grb7 SH2): 18.8 µM

B2: 41-mRLUC-3×Flag: fusion protein of peptide 41 with mRLUC and 3×Flag, expressed from transfected plasmid (protein)
chain: VGTWTTRGPWCPCVAVGIPTQPTTSSEPSPPSNPPWDPGRVLLGRIVWPGLLALGIPTHHQNDTYNSPHAHPNRDP
modifications: left off: mRLUC, C-terminal, kept | 3×Flag, C-terminal, kept
notes: fusion protein of peptide 41 with mRLUC and 3×Flag, expressed from transfected plasmid
- proliferation of transfected SK-BR-3 cells (MTS absorbance) [3]: significantly slower than that of the mRLUC-3×Flag control group

B3: phosphorylated ligand pY (1180) from ErbB3 (peptide)
peptide: DEEYE[pY]MNRRR
notes: ErbB3 stretch around Y1180; source: synthetic peptide (China Peptides Co., Ltd.)
- IC50 (EGFP-Grb7 SH2): 31.8 µM
